Reference: ChEMBL document CHEMBL1641435, “DR396, an apoptotic DNase γ inhibitor, attenuates high mobility group box 1 release from apoptotic cells” (Bioorg Med Chem, 2011)
Calls of active or inactive are those of the source. The rule behind the calls is not given here.

Tests used:
Deoxyribonuclease gamma [1] = molecular target: T1, Deoxyribonuclease gamma (Homo sapiens, UniProt Q13609); experiment: (§1) Inhibition of human recombinant DNase gamma expressed in Rosetta DE3 cells assessed as increase in acid soluble DNA after 30 mins; assay type: cell-based
T1 sequence (Q13609 whole entry): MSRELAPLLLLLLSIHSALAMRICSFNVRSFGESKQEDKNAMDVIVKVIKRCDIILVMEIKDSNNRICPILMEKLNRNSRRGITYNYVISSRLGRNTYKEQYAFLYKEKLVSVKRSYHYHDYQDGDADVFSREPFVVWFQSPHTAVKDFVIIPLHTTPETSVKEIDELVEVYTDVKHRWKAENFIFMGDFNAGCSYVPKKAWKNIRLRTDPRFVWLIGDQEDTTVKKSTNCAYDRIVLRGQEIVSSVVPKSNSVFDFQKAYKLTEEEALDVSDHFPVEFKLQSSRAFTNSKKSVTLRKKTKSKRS

[2] = molecular target: T2, Deoxyribonuclease gamma (Homo sapiens) (UniProt Q13609); experiment: as §1; assay type: cell-based
T2 sequence (whole entry): T1 sequence (Q13609 whole entry)

HeLa S3 = experiment: Inhibition of HMGB1 release in human staurosporine-induced HeLaS3 cells at 100 uM treated 1 hr before staurosporine challenge measured after 24 hrs by Western blotting; assay type: functional
[3] = molecular target: T2, Deoxyribonuclease gamma (Homo sapiens); details: HeLa S3; 30 uM
Description: Inhibition of DNase gamma-mediated nucleosomal DNA fragmentation expressed in human staurosporine-induced HeLaS3 cells at 30 uM treated 1 hr before staurosporine challenge measured after 24 hrs by Western blotting

Deoxyribonuclease gamma [4] = molecular target: T1, Deoxyribonuclease gamma; experiment: Inhibition of DNase gamma-mediated HMGB1 release expressed in human staurosporine-induced HeLaS3 cells treated 1 hr before staurosporine challenge measured after 24 hrs by Western blotting

Row | IC50 (Deoxyribonuclease gamma [1]) [µM] | inhibition [2] | inhibition [3] [%] | IC50 (Deoxyribonuclease gamma [4]) [µM] | Compound | inhibition at 100 µM (HeLa S3) [%] | inhibition (HeLa S3)
1 | 34.5 | Dose-dependent effect |  |  | O=C(N[C@H](CC1CCCCC1)C(=O)O)OCC1c2ccccc2-c2ccccc21 | 20 | 
2 | 3.2 | Dose-dependent effect | 50 | 30 | O=C(O)c1ccc(Nc2nc(Cl)nc(Cl)n2)cc1-c1c2ccc(=O)cc-2oc2cc(O)ccc12 |  | Active
3 | 16.1 | Dose-dependent effect |  |  | O=S(=O)(O)c1cc(O)c2c(O)c(/N=N/c3cccc4ccccc34)c(S(=O)(=O)O)cc2c1 [PONTACYL VIOLET 6R] | 50 | 
